The data set in a line: recombinant UMI read abundance after kanamycin selection (control-corrected) (log10(CPM+1)); higher = more efficient recombination; extreme values may be limits of the assay; sequences stand for … in AGTGCAGAGAAAATCGGCCAGTTTTCTCTGCCTGCAGTCCGCATGCCGTGGGACCCCTTGGGTTCTAACCTGTTGCCTAGATTTATGCAGCGGACTGCCTTTCTCCCAAAGTGATAAACCGG…AGGTTGGTTTCACT; site = the 11-nt donor. On the procedure:
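Pooled E. coli donor-specificity screen for the IS621 bridge recombinase. Each library member carries a reprogrammed 11-nt donor and a full-length LE bridge RNA expressed in cis from the natural promoter, with a paired donor-binding loop (8-nt LDG + 4-nt RDG) and a target-binding loop fixed to T5. It is co-electroporated with a T5 target plasmid; recombinase is induced with 0.07 mM IPTG and recombinants are selected on kanamycin. UMIs are counted as CPM, averaged over two biological replicates and corrected by the unselected control. Molecule = full bridge RNA written as DNA, built from the T5 scaffold: LDG = donor specificity nt 1-8, RDG = reverse complement of nt 8-11.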
Turning to “ACGAGTGCATGGACCGGTTTTCCCGGTAATCCGTATTTGGT (site ACCAGTGCTAC)”, the “recombinant UMI read abundance (log10)” value came out at 0.837. Take “ACGAGTGCATGGACCGGTTTTCCCGGTAATCCGTATTTGGT (site ACGAGTGCTAC)”: the “recombinant UMI read abundance (log10)” value came to 2.31.

For “ACGAGTGCATGGACCGGTTTTCCCGGTAATCCGTATTTGGT (site ACTAGTGCTAC)”, the “recombinant UMI read abundance (log10)” value was 1.22. For “ACGCAATCATGGACCGGTTTTCCCGGTAATCCGTATTTGAT (site ACGCAATCTAT)”, the “recombinant UMI read abundance (log10)” value was 2.55. With “ACGCACGCATGGACCGGTTTTCCCGGTAATCCGTATTTGCA (site ACGCACGCTTG)” the figure was 2.71. On to “ACGCCTACATGGACCGGTTTTCCCGGTAATCCGTATTTGAG (site ACGCCTACTCT)”, for which the “recombinant UMI read abundance (log10)” value amounted to 0.69. On to “ACGCGCACATGGACCGGTTTTCCCGGTAATCCGTATTTGTT (site ACGCGCACTAA)”, for which the “recombinant UMI read abundance (log10)” value came out at 1.61. The figure for “ACGCGTCCATGGACCGGTTTTCCCGGTAATCCGTATTTGAC (site ACGCGTCCTGT)” is 1.55; for “ACGGAACCATGGACCGGTTTTCCCGGTAATCCGTATTTGAG (site ACGGAACCTCT)” it is 0; for “ACGGAATCATGGACCGGTTTTCCCGGTAATCCGTATTTGTC (site ACGGAATCTGA)” it is 1.95. As for “ACGGATTCATGGACCGGTTTTCCCGGTAATCCGTATTTGCG (site ACGGATTCTCG)”, the “recombinant UMI read abundance (log10)” value turned out to be 2.66.

Regarding “ACGTAGACATGGACCGGTTTTCCCGGTAATCCGTATTTGGG (site ACATAGACTCC)”, the “recombinant UMI read abundance (log10)” value was found to be 0.351. Regarding “ACGTAGACATGGACCGGTTTTCCCGGTAATCCGTATTTGGG (site ACCTAGACTCC)”, the “recombinant UMI read abundance (log10)” value was 0.0219. As to “ACGTAGACATGGACCGGTTTTCCCGGTAATCCGTATTTGGG (site ACGTAGACTCC)”, the “recombinant UMI read abundance (log10)” value came to 0.4. The figure for “ACGTAGACATGGACCGGTTTTCCCGGTAATCCGTATTTGGG (site ACTTAGACTCC)” is 0.0197; for “ACGTCTACATGGACCGGTTTTCCCGGTAATCCGTATTTGTG (site ACATCTACTCA)” it is 0.796; for “ACGTCTACATGGACCGGTTTTCCCGGTAATCCGTATTTGTG (site ACCTCTACTCA)” it is 0.39. With “ACGTCTACATGGACCGGTTTTCCCGGTAATCCGTATTTGTG (site ACGTCTACTCA)” the figure was 0.512. The figure for “ACGTCTACATGGACCGGTTTTCCCGGTAATCCGTATTTGTG (site ACTTCTACTCA)” is 0.0124; for “ACGTCTGCATGGACCGGTTTTCCCGGTAATCCGTATTTGCT (site ACGTCTGCTAG)” it is 1.98; for “ACTAACCCATGGACCGGTTTTCCCGGTAATCCGTATTTGGC (site ACTAACCCTGC)” it is 0.

As for “ACTAATGCATGGACCGGTTTTCCCGGTAATCCGTATTTGGT (site ACTAATGCTAC)”, the “recombinant UMI read abundance (log10)” value was determined as 1.88.

Consider “ACTAATGCATGGACCGGTTTTCCCGGTAATCCGTATTTGGT (site ACTACTGCTAC)”, for which the “recombinant UMI read abundance (log10)” value was determined as 0.116. In the case of “ACTAATGCATGGACCGGTTTTCCCGGTAATCCGTATTTGGT (site ACTAGTGCTAC)”, the “recombinant UMI read abundance (log10)” value came to 0.00699. Take “ACTAATGCATGGACCGGTTTTCCCGGTAATCCGTATTTGGT (site ACTATTGCTAC)”: the “recombinant UMI read abundance (log10)” value came out at 0.568.

For “ACTACAACATGGACCGGTTTTCCCGGTAATCCGTATTTGAG (site ACTAAAACTCT)”, the “recombinant UMI read abundance (log10)” value was found to be 0.00762.

Consider “ACTACAACATGGACCGGTTTTCCCGGTAATCCGTATTTGAG (site ACTACAACTCT)”, for which the “recombinant UMI read abundance (log10)” value amounted to 1.22. For the sequence “ACTACAACATGGACCGGTTTTCCCGGTAATCCGTATTTGAG (site ACTAGAACTCT)”, the “recombinant UMI read abundance (log10)” value worked out at 0.216. Consider “ACTACAACATGGACCGGTTTTCCCGGTAATCCGTATTTGAG (site ACTATAACTCT)”, for which the “recombinant UMI read abundance (log10)” value was determined as 0.494.

The values above are taken from the supplement of paper PMC11208160.
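Note: IS621 bridge recombinase in Escherichia coli cells against a fixed T5 target plasmid.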
